According to ChEMBL document CHEMBL1201862, “PubChem BioAssay data set” (2004):
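In this assay, cells in 96-well plates receive the compound at five concentrations for 48 hours. Endpoints are linearly interpolated between the surrounding concentrations. GI50 = concentration required for 50% inhibition of growth.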 The source made the active and inactive calls. Rule as the data show it: active = GI50 up to about 1.1 µM and inactive = higher.

What was measured:
Assay in all cases: NCI tumour cell line growth inhibition, 48 h
[1] = test system: DLD-1
[2] = test system: DMS-273
[3] = test system: HOP-18
[4] = test system: KM-20L2
[5] = test system: LXFL 529
[6] = test system: M19-MEL
[7] = test system: SNB-78
[8] = test system: XF498
[9] = test system: RXF 631

| SMILES | GI50 [1] | GI50 [2] | GI50 [3] | GI50 [4] | GI50 [5] | GI50 [6] | GI50 [7] | GI50 [8] | GI50 [9] |
| --- | --- | --- | --- | --- | --- | --- | --- | --- | --- |
| O=C1[C@@H]2C(c3ccccc3[N+](=O)[O-])=[N+](c3ccccc3)O[C@@H]2C(=O)N1c1ccc(Cc2ccc(N3C(=O)[C@H]4C(c5ccccc5[N+](=O)[O-])=[N+](c5ccccc5)O[C@H]4C3=O)cc2)cc1 | > 100 µM (inactive) | > 100 µM (inactive) | 85.9 µM (inactive) | > 100 µM (inactive) | 94.6 µM (inactive) | > 100 µM (inactive) | > 100 µM (inactive) | – | – |
| CC(=O)OC1[C@H]2c3cc4c(cc3CN3CCC(C[C@@H]1OC(C)=O)C23)OCO4 (some centres undefined) | > 75 µM (inactive) | > 75 µM (inactive) | – | > 75 µM (inactive) | > 75 µM (inactive) | > 75 µM (inactive) | > 75 µM (inactive) | – | – |
| COc1cc([C@@H]2c3cc4c(cc3[C@@H](NC(=O)c3ccc(C#N)cc3)C3COC(=O)[C@@H]32)OCO4)cc(OC)c1O (some centres undefined) | 1.64 µM (inactive) | 0.0276 µM (active) | 55.1 µM (inactive) | 0.785 µM (active) | 4.61 µM (inactive) | 1.26 µM (inactive) | 6.03 µM (inactive) | – | – |
| C/C(=N/NC(N)=S)C(CN1CCOCC1)C(C1=C(O)c2ccccc2OC1)c1ccccc1 (centres undefined) | > 100 µM (inactive) | – | > 100 µM (inactive) | > 100 µM (inactive) | > 100 µM (inactive) | > 100 µM (inactive) | > 100 µM (inactive) | > 100 µM (inactive) | – |
| O=C(CSc1nnc(Cc2ccccc2)o1)Nc1ccc([N+](=O)[O-])cc1 | > 100 µM (inactive) | > 100 µM (inactive) | – | > 100 µM (inactive) | 78.2 µM (inactive) | > 100 µM (inactive) | > 100 µM (inactive) | – | – |
| c1ccc(N2CCN(CCN3CCc4c([nH]c5ccccc45)C3c3cccnc3)CC2)cc1 (centres undefined) | > 100 µM (inactive) | > 100 µM (inactive) | > 100 µM (inactive) | > 100 µM (inactive) | > 100 µM (inactive) | > 100 µM (inactive) | 56.8 µM (inactive) | 89.9 µM (inactive) | 39.5 µM (inactive) |
| COC(=O)NN=C1C(C)(C)C(=O)C1(C)C | > 100 µM (inactive) | > 100 µM (inactive) | – | > 100 µM (inactive) | > 100 µM (inactive) | – | > 100 µM (inactive) | > 100 µM (inactive) | > 100 µM (inactive) |
| O=C(Nc1ccc(Cl)c(C(F)(F)F)c1)C(=O)C(C(=O)/C=C/c1ccccc1)C1OC(=O)c2ccccc21 (centres undefined) | > 100 µM (inactive) | > 100 µM (inactive) | > 100 µM (inactive) | > 100 µM (inactive) | 57.4 µM (inactive) | 84.9 µM (inactive) | 64 µM (inactive) | > 100 µM (inactive) | – |
| FC(F)(F)c1nc(-c2ccccc2)oc1Sc1oc(-c2ccccc2)nc1C(F)(F)F | > 100 µM (inactive) | 66.7 µM (inactive) | 73.6 µM (inactive) | > 100 µM (inactive) | > 100 µM (inactive) | > 100 µM (inactive) | > 100 µM (inactive) | 34.8 µM (inactive) | – |
| COC(=O)/C=C1\CCC2[C@@H](C(=O)CC3[C@]2(C)CCC[C@@]3(C)C(=O)OC)C1C (some centres undefined) | 29.2 µM (inactive) | 22 µM (inactive) | 29.4 µM (inactive) | 29.3 µM (inactive) | 8.73 µM (inactive) | 19.2 µM (inactive) | 29.2 µM (inactive) | 13.7 µM (inactive) | 25.4 µM (inactive) |
| CC1(C)C(=O)/C=C\C(=O)C(C)(C)C(=O)/C=C\C(=O)C(C)(C)C(=O)/C=C\C(=O)C(C)(C)C(=O)/C=C\C1=O | 14.9 µM (inactive) | 16.8 µM (inactive) | 22.3 µM (inactive) | 26.6 µM (inactive) | 7.28 µM (inactive) | 20.2 µM (inactive) | 17.4 µM (inactive) | 30.3 µM (inactive) | – |
| Cn1cc2c(n1)c(N/N=C/c1ccccc1)nn1nnnc21 | > 100 µM (inactive) | > 100 µM (inactive) | > 100 µM (inactive) | > 100 µM (inactive) | > 100 µM (inactive) | > 100 µM (inactive) | > 100 µM (inactive) | > 100 µM (inactive) | > 100 µM (inactive) |
| CCOP(=O)(OCC)/C(C#N)=C/c1ccco1 | > 100 µM (inactive) | – | > 100 µM (inactive) | – | > 100 µM (inactive) | > 100 µM (inactive) | > 100 µM (inactive) | > 100 µM (inactive) | > 100 µM (inactive) |
| O=[N+]([O-])c1ccc(Cc2nc3ccccc3s2)cc1 | 41.6 µM (inactive) | 82.4 µM (inactive) | > 100 µM (inactive) | > 100 µM (inactive) | 61 µM (inactive) | 71.3 µM (inactive) | > 100 µM (inactive) | > 100 µM (inactive) | – |
| CS/C(=C(\S)c1ccccc1)c1ccccc1 | > 100 µM (inactive) | > 100 µM (inactive) | > 100 µM (inactive) | > 31.6 µM (inactive) | > 100 µM (inactive) | > 100 µM (inactive) | > 100 µM (inactive) | > 100 µM (inactive) | > 100 µM (inactive) |
| Fc1cccc(F)c1C1SCc2nc3ccccc3n21 (centres undefined) [THIAZOLOBENZIMIDAZOLE] | > 100 µM (inactive) | 50.2 µM (inactive) | 53.6 µM (inactive) | > 100 µM (inactive) | 60.4 µM (inactive) | 44.9 µM (inactive) | 63.5 µM (inactive) | 52 µM (inactive) | – |
| O=[N+]([O-])c1ccc(-c2ccc(-c3csc(Nc4ccccc4)n3)o2)cc1 | 23.3 µM (inactive) | 23 µM (inactive) | 15.8 µM (inactive) | 21 µM (inactive) | 18.6 µM (inactive) | 29.9 µM (inactive) | 8.17 µM (inactive) | 18.4 µM (inactive) | – |
| O=c1c2ccccc2nc(-c2ccccc2)n1NC(=S)Nc1cccc(Cl)c1 | > 100 µM (inactive) | 66.4 µM (inactive) | > 100 µM (inactive) | – | > 100 µM (inactive) | > 100 µM (inactive) | – | – | – |
| COc1cccc(NC(=O)CC(=O)N2NC(c3ccccc3)C(/N=N/c3cccc(C(=O)O)c3)C2=O)c1 (centres undefined) | > 100 µM (inactive) | – | < 0.01 µM (active) | > 100 µM (inactive) | 85.1 µM (inactive) | > 100 µM (inactive) | > 100 µM (inactive) | > 100 µM (inactive) | – |
| O=C1C2Nc3ccccc3SC2C(=O)N1c1ccccc1C(F)(F)F (centres undefined) | 27.3 µM (inactive) | – | 26.4 µM (inactive) | – | 33.7 µM (inactive) | 46.9 µM (inactive) | 15.2 µM (inactive) | 19.6 µM (inactive) | – |
| CCOC(=O)/C(=C\c1cccs1)P(=O)(OCC)OCC | 21.2 µM (inactive) | 34.6 µM (inactive) | 31.3 µM (inactive) | 21.9 µM (inactive) | 18.6 µM (inactive) | 21.5 µM (inactive) | 49.3 µM (inactive) | – | 55.8 µM (inactive) |
| CSC(C1c2ccccc2N(C)c2[nH]c(=O)n(C)c(=O)c21)S(=O)(=O)c1ccc(C)cc1 (centres undefined) | > 100 µM (inactive) | 43.5 µM (inactive) | > 100 µM (inactive) | – | 56.4 µM (inactive) | 40.3 µM (inactive) | > 100 µM (inactive) | > 100 µM (inactive) | – |
